In PubChem BioAssay AID2060511 (Molecular Pharmacology Branch, DTP, NCI, 2025):

System: 422866-222-R5-J1-PDC spheroids with HUVEC/MSC, viability
Assay: Anticancer human tumor 422866-222-R5-J1-PDC patient-derived pancreatic adenocarcinoma cell line growth inhibition [GQUAD]
Conditions: for IC50: curve of first compound; for viability, T/C: stronger effect = lower value
In short: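 Multi-cell-type spheroids of tumor cells with HUVEC and mesenchymal stem cells, treated with drug combinations. Concentrations descend in half-log steps from near clinical Cmax, or from 10 microM where Cmax is unknown; viability read-out.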

[1] = second compound 0.0316 µM, first compound 0.0316 µM
[2] = second compound 0.0316 µM, first compound 0.1 µM
[3] = second compound 0.0316 µM, first compound 0.316 µM
[4] = second compound 0.0316 µM, first compound 1 µM
[5] = second compound 0.0316 µM, first compound 3.16 µM
[6] = second compound 0.0316 µM, first compound 10 µM
[7] = second compound 0.1 µM, first compound 0.0316 µM
[8] = second compound 0.1 µM, first compound 0.1 µM
[9] = second compound 0.1 µM, first compound 0.316 µM
[10] = second compound 0.1 µM, first compound 1 µM
[11] = second compound 0.1 µM, first compound 3.16 µM
[12] = second compound 0.1 µM, first compound 10 µM
[13] = second compound 0.316 µM, first compound 0.0316 µM
[14] = second compound 0.316 µM, first compound 0.1 µM
[15] = second compound 0.316 µM, first compound 0.316 µM
[16] = second compound 0.316 µM, first compound 1 µM
[17] = second compound 0.316 µM, first compound 3.16 µM
[18] = second compound 0.316 µM, first compound 10 µM
[19] = second compound 1 µM, first compound 0.0316 µM
[20] = second compound 1 µM, first compound 0.1 µM
[21] = second compound 1 µM, first compound 0.316 µM
[22] = second compound 1 µM, first compound 1 µM
[23] = second compound 1 µM, first compound 3.16 µM
[24] = second compound 1 µM, first compound 10 µM
[25] = second compound 3.16 µM, first compound 0.0316 µM
[26] = second compound 3.16 µM, first compound 0.1 µM
[27] = second compound 3.16 µM, first compound 0.316 µM
[28] = second compound 3.16 µM, first compound 1 µM
[29] = second compound 3.16 µM, first compound 3.16 µM
[30] = second compound 3.16 µM, first compound 10 µM
[31] = second compound 10 µM, first compound 0.0316 µM
[32] = second compound 10 µM, first compound 0.1 µM
[33] = second compound 10 µM, first compound 0.316 µM
[34] = second compound 10 µM, first compound 1 µM
[35] = second compound 10 µM, first compound 3.16 µM
[36] = second compound 10 µM, first compound 10 µM
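Further: spheroids exposed to compounds for seven days before reading.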
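Wherever viability, T/C is given: percent viability relative to DMSO vehicle control taken as 100%.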

Q: What does the source list for `COc1cc(C2c3cc4c(cc3C(OC3OC5COC(C)OC5C(O)C3O)C3COC(=O)C23)OCO4)cc(OC)c1O` (stereo unspecified) + CN(C)c1ccc(Nc2c3ccc(NC(=O)CCN4CCCC4)cc3nc3cc(NC(=O)CCN4CCCC4)ccc23)cc1?
A: IC50 (second compound 0.0316 µM): 1890 nM; IC50 (second compound 0.1 µM): 1520 nM; IC50 (second compound 0.316 µM): 3330 nM; IC50 (second compound 1 µM): 926 nM; IC50 (second compound 3.16 µM): 3090 nM; IC50 (second compound 10 µM): 4390 nM; viability, T/C [1]: 97.3%; viability, T/C [2]: 89%; viability, T/C [3]: 84.5%; viability, T/C [4]: 57.5%; viability, T/C [5]: 41.4%; viability, T/C [6]: 45.4%; viability, T/C [7]: 116%; viability, T/C [8]: 86.6%; viability, T/C [9]: 70.9%; viability, T/C [10]: 54.1%; viability, T/C [11]: 40.9%; viability, T/C [12]: 38.2%; viability, T/C [13]: 101%; viability, T/C [14]: 92.9%; viability, T/C [15]: 73.8%; viability, T/C [16]: 59.2%; viability, T/C [17]: 50.7%; viability, T/C [18]: 46.3%; viability, T/C [19]: 92%; viability, T/C [20]: 79.4%; viability, T/C [21]: 63.9%; viability, T/C [22]: 47.1%; viability, T/C [23]: 44.4%; viability, T/C [24]: 38.1%; viability, T/C [25]: 85.7%; viability, T/C [26]: 76.2%; viability, T/C [27]: 65.9%; viability, T/C [28]: 56.2%; viability, T/C [29]: 49.9%; viability, T/C [30]: 46%; viability, T/C [31]: 73.2%; viability, T/C [32]: 80.8%; viability, T/C [33]: 67.1%; viability, T/C [34]: 63.9%; viability, T/C [35]: 55.9%; viability, T/C [36]: 38.2%

Q: Which results are given for `Cc1cccc(N(C)C(=O)C2C(O)CCN2c2nc(C)cc(C(F)(F)F)c2C#N)c1` (stereo unspecified) + CN(C)c1ccc(Nc2c3ccc(NC(=O)CCN4CCCC4)cc3nc3cc(NC(=O)CCN4CCCC4)ccc23)cc1?
A: IC50 (second compound 0.0316 µM): > 10000 nM; IC50 (second compound 0.1 µM): > 10000 nM; IC50 (second compound 0.316 µM): > 10000 nM; IC50 (second compound 1 µM): > 10000 nM; IC50 (second compound 3.16 µM): > 10000 nM; IC50 (second compound 10 µM): > 10000 nM; viability, T/C [1]: 119%; viability, T/C [2]: 98.6%; viability, T/C [3]: 104%; viability, T/C [4]: 88.3%; viability, T/C [5]: 96.6%; viability, T/C [6]: 107%; viability, T/C [7]: 92.1%; viability, T/C [8]: 81%; viability, T/C [9]: 105%; viability, T/C [10]: 80.1%; viability, T/C [11]: 102%; viability, T/C [12]: 99.5%; viability, T/C [13]: 97.8%; viability, T/C [14]: 69.4%; viability, T/C [15]: 80.6%; viability, T/C [16]: 86.2%; viability, T/C [17]: 103%; viability, T/C [18]: 111%; viability, T/C [19]: 84.4%; viability, T/C [20]: 86.1%; viability, T/C [21]: 80.7%; viability, T/C [22]: 91.7%; viability, T/C [23]: 101%; viability, T/C [24]: 93.2%; viability, T/C [25]: 77.9%; viability, T/C [26]: 70.4%; viability, T/C [27]: 79.7%; viability, T/C [28]: 85.6%; viability, T/C [29]: 88.8%; viability, T/C [30]: 93.6%; viability, T/C [31]: 72.6%; viability, T/C [32]: 90.5%; viability, T/C [33]: 98.3%; viability, T/C [34]: 82.4%; viability, T/C [35]: 82.4%; viability, T/C [36]: 85%

Q: Which IC50 (second compound 0.0316 µM) does the source give for `Cn1ncnc1[C@H]1c2n[nH]c(=O)c3cc(F)cc(c23)N[C@@H]1c1ccc(F)cc1` + CN(C)c1ccc(Nc2c3ccc(NC(=O)CCN4CCCC4)cc3nc3cc(NC(=O)CCN4CCCC4)ccc23)cc1 here?
A: > 316 nM

Q: What about the IC50 (second compound 0.1 µM) of the same compound?
A: > 316 nM

Q: And the IC50 (second compound 0.316 µM)?
A: > 316 nM

Q: What about the IC50 (second compound 1 µM) of the same compound?
A: > 316 nM

Q: What about the IC50 (second compound 3.16 µM) of the same compound?
A: > 316 nM

Q: And the IC50 (second compound 10 µM)?
A: > 316 nM

Q: And the viability, T/C (second compound 0.0316 µM, first compound 0.000999 µM)?
A: 112%

Q: And the viability, T/C (second compound 0.0316 µM, first compound 0.00316 µM)?
A: 93.7%

Q: And the viability, T/C (second compound 0.0316 µM, first compound 0.00999 µM)?
A: 108%

Q: What about the viability, T/C [1] of the same compound?
A: 97.2%

Q: What about the viability, T/C (second compound 0.0316 µM, first compound 0.0999 µM) of the same compound?
A: 80.6%

Q: And the viability, T/C [3]?
A: 75.1%

Q: What about the viability, T/C (second compound 0.1 µM, first compound 0.000999 µM) of the same compound?
A: 113%

Q: What about the viability, T/C (second compound 0.1 µM, first compound 0.00316 µM) of the same compound?
A: 95.9%

Q: What about the viability, T/C (second compound 0.1 µM, first compound 0.00999 µM) of the same compound?
A: 88%

Q: And the viability, T/C [7]?
A: 93.5%

Q: And the viability, T/C (second compound 0.1 µM, first compound 0.0999 µM)?
A: 83%

Q: And the viability, T/C [9]?
A: 75.7%

Q: What about the viability, T/C (second compound 0.316 µM, first compound 0.000999 µM) of the same compound?
A: 94.1%

Q: And the viability, T/C (second compound 0.316 µM, first compound 0.00316 µM)?
A: 90%

Q: And the viability, T/C (second compound 0.316 µM, first compound 0.00999 µM)?
A: 81.5%

Q: What about the viability, T/C [13] of the same compound?
A: 85%

Q: What about the viability, T/C (second compound 0.316 µM, first compound 0.0999 µM) of the same compound?
A: 89.1%

Q: What about the viability, T/C [15] of the same compound?
A: 67.3%

Q: And the viability, T/C (second compound 1 µM, first compound 0.000999 µM)?
A: 78.9%

Q: And the viability, T/C (second compound 1 µM, first compound 0.00316 µM)?
A: 81.3%

Q: What about the viability, T/C (second compound 1 µM, first compound 0.00999 µM) of the same compound?
A: 75.9%

Q: And the viability, T/C [19]?
A: 91.5%

Q: What about the viability, T/C (second compound 1 µM, first compound 0.0999 µM) of the same compound?
A: 73.7%

Q: And the viability, T/C [21]?
A: 72%

Q: What about the viability, T/C (second compound 3.16 µM, first compound 0.000999 µM) of the same compound?
A: 72.3%

Q: What about the viability, T/C (second compound 3.16 µM, first compound 0.00316 µM) of the same compound?
A: 69.7%

Q: And the viability, T/C (second compound 3.16 µM, first compound 0.00999 µM)?
A: 89.5%

Q: What about the viability, T/C [25] of the same compound?
A: 83%

Q: And the viability, T/C (second compound 3.16 µM, first compound 0.0999 µM)?
A: 80.1%

Q: And the viability, T/C [27]?
A: 80.3%

Q: And the viability, T/C (second compound 10 µM, first compound 0.000999 µM)?
A: 97.7%

Q: And the viability, T/C (second compound 10 µM, first compound 0.00316 µM)?
A: 85.1%

Q: And the viability, T/C (second compound 10 µM, first compound 0.00999 µM)?
A: 97.4%

Q: And the viability, T/C [31]?
A: 90.4%

Q: And the viability, T/C (second compound 10 µM, first compound 0.0999 µM)?
A: 71.8%

Q: And the viability, T/C [33]?
A: 82.1%
